Assay results as given in ChEMBL document CHEMBL3507680, “University of Dundee, Gates Library screen for HepG2 cell viability”.

assay: Human HepG2 cell viability assay in 384 well format; type: toxicity, cell-based; set-up: dose 125 nL, time 70.5 hour; cytotoxicity at 70.5 h: concentration not given beside the values; conditions: HepG2 cells, read-out: Inhibition

| Structure (SMILES) | cytotoxicity at 70.5 h [%] |
| --- | --- |
| Cc1cc(N(C)C)nc(C2COCCN2Cc2nccn2C)n1 (configuration not stated) | -6.31 |
| Cc1cc(NC(=O)CNc2cccc(OC(F)F)c2C)n(C)n1 | -6.65 |
| CC(C)N1CCCC2(CCN(Cc3nncn3C(C)C)C2)C1=O (configuration not stated) | -0.727 |
| Cc1noc(C)c1S(=O)(=O)N1CCC(Oc2cnccn2)CC1 | 11.2 |
| Cc1nnc(N2C[C@H](Oc3ccccn3)[C@H]3OCCC[C@H]32)s1 | 8.06 |
| Clc1ccc(-n2nnnc2C2(NCc3ccco3)CCCCC2)cc1 | -11.2 |
| CCOc1nnc(CN2CCC(c3nc4ccccc4[nH]3)CC2)s1 | 1.06 |
| COCCNC(=O)[C@@]12CCO[C@@H]1CCN(Cc1cc(C)on1)C2 | 7.02 |
| C1CCN(CCN2CCCCC2C2OCCO2)CC1 (configuration not stated) | 3.91 |
| COCCn1cnnc1Cn1ccnc1-c1ccsc1 | 1.35 |
| CN1CCN(Cc2ccccc2Oc2nccc3occc23)CC1 | -1.68 |
| O=C(Cc1c(F)cccc1Cl)N1CCC(Nc2cccnn2)CC1 | -1.25 |
| O=C([C@H]1COC[C@H]2CN(C3CCOCC3)C[C@H]21)N1CCC(F)CC1 | -8.13 |
| CC(C)(C)c1csc(CCNC(=O)[C@H](c2ccccc2)n2cnnn2)n1 | -5.57 |
| O=C([C@@H]1CCO[C@@H]2CCN(Cc3ccsc3)C[C@@H]21)N1CCCC1 | -16.1 |
| C=C(C)CN1CCC(NC(=O)NCCc2ccccc2OC)CC1 | -7.86 |
| Cc1ccc(O)c(C(=O)N2CCC(CNC(=O)OC(C)(C)C)C2)c1 (configuration not stated) | -7.45 |
| O[C@]12CC[C@H](CC1)N(Cc1ccc(F)cc1)C2CN1CCOCC1 (some centres not stated) | -7.54 |
| O=C1CN(Cc2nnc(-c3ccc(Br)cc3)o2)CCN1 | 4.44 |
| COCCN1C2(CCN(Cc3nccs3)C2)c2ccccc2S1(=O)=O (configuration not stated) | -12.7 |
| O=C(Cc1ccc(F)cc1)N1CCN(CC(O)c2ccccc2)CC1 (configuration not stated) | -4.51 |
| Cc1nn(C)c2cn(C(C)C(=O)NCc3ccc(F)cc3)nc12 (configuration not stated) | -3.15 |
| CCn1nc(CC(C)C)cc1C(=O)N1CCC2(CC1)[C@H](O)C[C@@H]2O | 1.5 |

| Structure (SMILES) | cytotoxicity at 70.5 h [%] |
| --- | --- |
| Cc1ncsc1C(=O)NCc1ccnc(N2CCN(C)CC2)c1 | -7.54 |
| C[C@]1(O)CN(Cc2cccc(C(=O)O)c2)CC[C@@H]1Oc1cccc(F)c1 | -4.99 |
| O=C1c2cnc(N3CCOCC3)nc2CN1C1CCS(=O)(=O)C1 (configuration not stated) | 5.93 |
| O=S(=O)(Cc1ccccc1F)Cc1nnnn1C1CC1 | -14.6 |
| CCNC(=O)C1CCN(Cc2ccccc2OCC(F)(F)F)CC1 | -4.11 |
| O=C(CCc1cc2n(n1)CCCN(C(=O)c1cccnc1)C2)NC1CC1 | -2.07 |
| O=C1CCNc2ncc(-c3ccc(Cl)cc3)cc2CN1C1CC1 | -8.11 |
| Cc1ccc(CC2CCCN(S(C)(=O)=O)C2)nc1 (configuration not stated) | -9.35 |
| Cc1nc(C)n(CC2CCCN(c3ncnc4ccccc34)C2)n1 (configuration not stated) | -6.84 |
| COCCN(C)C(=O)c1nc2c(s1)CCCN2C(=O)C1CC1 | -3.1 |
| Nc1nc(N)c2c(n1)OC1(CCN(C(=O)CC3CCCCN3)CC1)C2 (configuration not stated) | -5.34 |
| O=C(C1CCCc2[nH]ncc21)N1CCCC2(C1)OCCO2 (configuration not stated) | -9.5 |
| COc1ccc(NC(=O)CCn2nc(-c3cccs3)oc2=O)cc1OC | -5.48 |
| Cc1cccc(OCCNC(=O)CN2CCc3cncnc3C2)c1 | -7.19 |
| O=C1NCc2ccccc2CC12CCCN(Cc1ccsc1)C2 (configuration not stated) | 2.74 |
| CC(Cc1cnccn1)NC(=O)c1cccc(CC2CCNCC2)c1 (configuration not stated) | 14 |
| O=S(=O)(NC1CCOC1)c1ccc(C(F)(F)F)nc1 (configuration not stated) | -2.28 |
| Cn1ccnc1CN1CCCN(C(=O)c2ccc3[nH]cnc3c2)CC1 | -8.02 |
| CCc1nc(CN(Cc2cccs2)CC2CCCO2)no1 (configuration not stated) | 1.39 |
| c1ccc(CN2CCC(NCCSc3cnn[nH]3)CC2)cc1 | 2.48 |
| CNS(=O)(=O)c1cccc(C(C)NCc2cccc(C)c2C)c1 (configuration not stated) | -12.2 |
| CN(C)c1ncnc2c1CCN(c1cccc(F)c1)CC2 | -3.26 |
| CCCc1cnc(C)nc1NCCc1nc(C)cc(=O)[nH]1 | -9.64 |

| Structure (SMILES) | cytotoxicity at 70.5 h [%] |
| --- | --- |
| Cc1nc(O)cc(CCNc2nc(N(C)C)nc(C)c2C)n1 | 22 |
| Cc1ccc(C)c(C(NC(=O)C(C)(C)C)c2cccnc2)c1 (configuration not stated) | -4.24 |
| Cc1ccccc1OCCC(=O)N1CCCC(n2cncn2)C1 (configuration not stated) | -6.17 |
| O=C(Nc1ccccc1)c1cccc(S(=O)(=O)NC[C@@H]2C[C@H](F)CN2)c1 | 6.01 |
| CCCNC(=O)CCNC(=O)Cc1nc(-c2ccco2)oc1C | -4.05 |
| O=C(CCS(=O)(=O)C1CCCC1)NCc1ccccc1Cn1cncn1 | -11 |
| Cc1cnc(CC2COCCN(C(=O)c3cncnc3)C2)cn1 (configuration not stated) | -5.02 |
| CSc1ccc(C(CN)N2CCc3sccc3C2)cc1 (configuration not stated) | 24.3 |
| Cc1ccc(C(=O)NCc2cccnc2-n2cncn2)cc1S(C)(=O)=O | 17.5 |
| CC(C)c1n[nH]c(C2CN(C(=O)c3cccc4cn[nH]c34)CCO2)n1 (configuration not stated) | 3.42 |
| CC(C(=O)N(C)C)N1CCc2onc(-c3cccc(F)c3)c2C1 (configuration not stated) | -5.12 |
| CSc1nccc(NCC2CNCCO2)n1 (configuration not stated) | -5.51 |
| CN(Cc1cccc(OC(F)(F)F)c1)C(=O)Cc1ccon1 | -13.6 |
| Cc1csc(CN2CC[C@H]3C[C@@H](c4noc(C)n4)O[C@@H]3C2)n1 | -0.439 |
| CCS(=O)(=O)c1ccc2oc([C@H]3CCN(Cc4ccccc4)C3)nc2c1 | 2.59 |
| Cc1ccc(CN2CCS(=O)(=O)C(C)(C)C2)cc1C | 20.3 |
| CS(=O)(=O)NC[C@]12COC[C@H]1CN(C(=O)c1ncccn1)C2 | 17.4 |
| Cc1ccc(-c2noc(CN3CCOC(Cn4cncn4)C3)n2)cc1 (configuration not stated) | -7.15 |
| COCc1noc(-c2cc(Cl)c3c(c2)OCO3)n1 | -19.3 |
| Cc1sc(CNS(N)(=O)=O)nc1-c1ccc(Cl)cc1 | -2.62 |
| COCCN1C[C@@H](C)[C@@]2(COCCN(C(=O)c3cccc(C)n3)C2)C1 | 0.709 |
| COc1ccc(F)cc1CSCC(=O)N(CCC#N)CCC#N | -3.2 |
| Cc1noc(CNC(=O)NCCOc2ccc(Cl)cc2)n1 | -3.2 |

| Structure (SMILES) | cytotoxicity at 70.5 h [%] |
| --- | --- |
| CN(Cc1cncnc1)[C@H]1CN(Cc2ccco2)[C@@H]2CCCO[C@@H]21 | -9.91 |
| Cc1ccc(CCCC(=O)N2CCC(CS(N)(=O)=O)CC2)s1 | -18.3 |
| NC(=O)C1CCN(c2ncccc2C(=O)N2CCc3ccccc32)C1 (configuration not stated) | -5.78 |
| Cc1c[nH]c(C2CCCN(Cc3ccccc3C(=O)O)C2)n1 (configuration not stated) | 18.7 |
| Cc1nccn1-c1ncccc1NC(=O)CCOCC(C)C | -7.64 |
| Cc1ccc(CCNC(=O)CC2COCCN2S(=O)(=O)N(C)C)s1 (configuration not stated) | -11 |
| CCN(C)S(=O)(=O)N(Cc1cscn1)c1ccccc1 | -7.14 |
| CC1CCc2nn(CCNC(=O)c3ccco3)c(=O)cc2C1 (configuration not stated) | -5.13 |
| Cc1nc(CNC(=O)NCC(O)c2cccc(Cl)c2)cs1 (configuration not stated) | 5.52 |
| Cc1ccc(CN(Cc2cc(C)no2)C2CC2)cc1 | -3.87 |
| Cc1ccc(N(C)S(=O)(=O)c2cc(C(=O)O)cs2)cc1 | 4.32 |
| COCC(=O)N1CCCn2c(CN3CCCC3=O)nnc2C1 | -8.38 |
| Cc1cccc(N2CC3(CCN(C(=O)NC(C)C)C3)CC2=O)c1 (configuration not stated) | -9.16 |
| COc1ccc(-n2ncc(C(C)NCc3cnc(SC)nc3)c2C)cc1 (configuration not stated) | -3.63 |
| Cc1cc(C)n2nc(C(=O)N3CCCC4(CNC(=O)O4)C3)cc2n1 (configuration not stated) | 13.7 |
| Cc1ncccc1OC1(C(=O)NCCC2CCCN2C)CCNCC1 (configuration not stated) | 13.7 |
| N#Cc1ccc(C(=O)N2CCC3(CC2)C(=O)Nc2ccccc23)cn1 | -11.7 |
| CC(C)c1cc(NC(=O)CN2CCNC(=O)C2)on1 | -5.09 |
| CCn1c(SCC(N)=O)nnc1C(C)NC(=O)c1ccc(Cl)cc1 (configuration not stated) | 17.8 |
| CN(CCSc1ccccc1)C(=O)C(c1cccnc1)N1CCOCC1 (configuration not stated) | 33.5 |
| Cc1cc(C)c(S(=O)(=O)NCCC(=O)NCc2ccoc2)c(C)c1 | 3.02 |
| CC(C)C(O)C(=O)N1CCC2(CC1)c1nc[nH]c1CCN2S(C)(=O)=O (configuration not stated) | -6.39 |
| CCc1cc(NCCc2cccnc2)n2nc(C)c(C)c2n1 | -5.81 |

| Structure (SMILES) | cytotoxicity at 70.5 h [%] |
| --- | --- |
| COc1ccc(OC)c(C(=O)N2CCCCC2Cn2cccn2)c1 (configuration not stated) | -0.39 |
| CC1(Cc2cccnc2)NCCc2[nH]cnc21 (configuration not stated) | 10.5 |
| Cc1noc(CCCNC(=O)CNC(=O)c2cc3ccccc3[nH]2)n1 | -5.29 |
| Cc1n[nH]cc1CNCC(O)c1ccc(F)c(F)c1 (configuration not stated) | -7.55 |
| CCc1c(C)nc2cc(-c3nccn3C)nn2c1N1CCCC(CO)C1 (configuration not stated) | 27.9 |
| COCCN1CC2(CCC1=O)CCN(Cc1nnc(C)o1)CC2 | -5.52 |
| O=C(N[C@H]1CN[C@H]2CCCO[C@H]21)c1cccnc1 | -10.1 |
| CCN(CC)CCCNc1nccc(-c2cn(C)nc2C)n1 | -3.41 |
| COc1cccc(-c2cc(C(=O)NCCCn3cnnc3)[nH]n2)c1 | -11.1 |
| COCC(=O)N1CCC2(COCc3cnc(-c4ccccc4)nc32)C1 (configuration not stated) | -3.58 |
| O=c1[nH]c2c(c(=O)n1C1CCCCC1)CCC2NCc1ccccc1 (configuration not stated) | -30.1 |
| COCCN(Cc1ccco1)Cc1nc(-c2ccc(C)c(F)c2)no1 | 17.2 |
| Cc1ccc(CC(=O)N2CC[C@@H]3CN(CCN(C)C)CCO[C@@H]3C2)cc1 | -8.7 |
| Cc1cc(N2CCC(CO)(CC3CCCCO3)CC2)c2ccccc2n1 (configuration not stated) | 2.86 |
| O=C(NCCn1cccc1)C(c1cccnc1)N1CCCC1 (configuration not stated) | -0.962 |
| CCc1ccc(CN2CC[C@H]3C[C@H](c4nnc(C)[nH]4)O[C@@H]3C2)o1 | -1.93 |
| Cc1noc(C)c1CNc1cccc(C(=O)N2CCCC(O)C2)c1 (configuration not stated) | -9.24 |
| O=C(c1ccncc1)N1CCC(Cc2cnc3[nH]ccc3c2)CC1 | -5.49 |
| CCC(Nc1nnnn1-c1ccccc1)C(=O)Nc1nc(C)cs1 (configuration not stated) | -12.4 |
| CC(=O)NCCNC(=O)c1cnc(-c2ccccc2)nc1 | -17.1 |
